In EPA's CvTdb concentration-time database:

Columns and labels:
Assay in all cases: concentration in plasma after dosing
Rat [1] = settings: dosed: 4-methylimidazole, 10 mg/kg, iv, Male, Harlan Sprague Dawley
Rat [2] = settings: dosed: 4-methylimidazole, 10 mg/kg, iv, Male, Harlan Sprague Dawley; remark: listed apart in the source
Rat [3] = settings: dosed: 4-methylimidazole, 10 mg/kg, iv, Male, Harlan Sprague Dawley; remark: listed apart in the source
Rat [4] = settings: dosed: 4-methylimidazole, 10 mg/kg, iv, Male, Harlan Sprague Dawley; remark: listed apart in the source
Rat [5] = settings: dosed: 4-methylimidazole, 10 mg/kg, iv, Male, Harlan Sprague Dawley; remark: listed apart in the source
Rat [6] = settings: 0.5 h; dosed: 4-methylimidazole; 10 mg/kg; iv; Male; Harlan Sprague Dawley
Rat [7] = settings: dosed: 4-methylimidazole, 10 mg/kg, iv, Harlan Sprague Dawley
Rat [8] = settings: dosed: 4-methylimidazole, 10 mg/kg, iv, Male, Harlan Sprague Dawley; remark: listed apart in the source
Rat [9] = settings: dosed: 4-methylimidazole, 10 mg/kg, iv, Male, Harlan Sprague Dawley; remark: listed apart in the source
Rat [10] = settings: dosed: 4-methylimidazole, 10 mg/kg, iv, Male, Harlan Sprague Dawley; remark: listed apart in the source
Rat [11] = settings: dosed: 4-methylimidazole, 10 mg/kg, iv, Male, Harlan Sprague Dawley; remark: listed apart in the source
Rat [12] = settings: 0.75 h; dosed: 4-methylimidazole; 10 mg/kg; iv; Male; Harlan Sprague Dawley
Rat [13] = settings: dosed: 4-methylimidazole, 10 mg/kg, iv, Male, Harlan Sprague Dawley; remark: listed apart in the source
Rat [14] = settings: dosed: 4-methylimidazole, 10 mg/kg, iv, Male, Harlan Sprague Dawley; remark: listed apart in the source
Rat [15] = settings: dosed: 4-methylimidazole, 10 mg/kg, iv, Male, Harlan Sprague Dawley; remark: listed apart in the source
Rat [16] = settings: 0.75 h; dosed: 4-methylimidazole; 10 mg/kg; iv; Male; Harlan Sprague Dawley; remark: listed apart in the source
Rat [17] = settings: dosed: 4-methylimidazole, 10 mg/kg, iv, Male, Harlan Sprague Dawley; remark: listed apart in the source
Rat [18] = settings: dosed: 4-methylimidazole, 10 mg/kg, iv, Male, Harlan Sprague Dawley; remark: listed apart in the source
Rat [19] = settings: dosed: 4-methylimidazole, 10 mg/kg, iv, Male, Harlan Sprague Dawley; remark: listed apart in the source
Rat [20] = settings: dosed: 4-methylimidazole, 10 mg/kg, iv, Male, Harlan Sprague Dawley; remark: listed apart in the source
Rat [21] = settings: dosed: 4-methylimidazole, 10 mg/kg, iv, Male, Harlan Sprague Dawley; remark: listed apart in the source
Rat [22] = settings: dosed: 4-methylimidazole, 10 mg/kg, iv, Male, Harlan Sprague Dawley; remark: listed apart in the source
Rat [23] = settings: dosed: 4-methylimidazole, 10 mg/kg, iv, Male, Harlan Sprague Dawley; remark: listed apart in the source
Rat [24] = settings: dosed: 4-methylimidazole, 10 mg/kg, iv, Male, Harlan Sprague Dawley; remark: listed apart in the source
Rat [25] = settings: dosed: 4-methylimidazole, 10 mg/kg, iv, Male, Harlan Sprague Dawley; remark: listed apart in the source
Rat [26] = settings: 0.5 h; dosed: 4-methylimidazole; 10 mg/kg; iv; Male; Harlan Sprague Dawley; remark: listed apart in the source
Rat [27] = settings: dosed: 4-methylimidazole, 10 mg/kg, iv, Female, Harlan Sprague Dawley
Rat [28] = settings: dosed: 4-methylimidazole, 10 mg/kg, iv, Female, Harlan Sprague Dawley; remark: listed apart in the source
Rat [29] = settings: dosed: 4-methylimidazole, 10 mg/kg, iv, Male, Harlan Sprague Dawley; remark: listed apart in the source

Cc1cnc[nH]1 [4-methylimidazole]
Settings | concentration in plasma [ng/mL]
Rat [1], 2 h | 2460
Rat [1], 10 min | 7010
Rat [2], 6 h | 148
Rat [2], 20 min | 6950
Rat [3], 6 h | 116
Rat [3], 20 min | 6840
Rat [4], 2 h | 2740
Rat [4], 7 min | 8150
Rat [5], 1 h | 4110
Rat [5], 7 min | 7090
Rat [8], 2 h | 3340
Rat [8], 7 min | 8240
Rat [9], 0.75 h | 4780
Rat [9], 2 min | 11800
Rat [10], 0.5 h | 5620
Rat [10], 6 h | 162
Rat [11], 2 h | 2740
Rat [11], 7 min | 8840
Rat [13], 4 h | 1720
Rat [13], 10 min | 7910
Rat [14], 0.5 h | 5280
Rat [14], 6 h | 108
Rat [15], 4 h | 611
Rat [15], 10 min | 8520
Rat [17], 6 h | 112
Rat [17], 20 min | 7340
Rat [18], 0.75 h | 5620
Rat [18], 8 h | 74.3
Rat [19], 4 h | 647
Rat [19], 20 min | 6930
Rat [20], 1 h | 4610
Rat [20], 2 min | 12200
Rat [21], 0.75 h | 3040
Rat [21], 8 h | 656
Rat [22], 1 h | 4070
Rat [22], 2 min | 10200
Rat [23], 2 h | 3520
Rat [23], 10 min | 6960
Rat [24], 4 h | 960
Rat [24], 20 min | 5890
Rat [25], 4 h | 1490
Rat [25], 10 min | 7840
Rat [27], 1 h | 6380
Rat [27], 2 min | 10500
Rat [28], 1 h | 5190
Rat [28], 2 min | 12000
Rat [29], 0.5 h | 5440
Rat [29], 8 h | 88.2

Settings | concentration in plasma [ng/mL]
Rat [6] | 5770
Rat [12] | 5440
Rat [16] | 6160
Rat [26] | 5420

concentration in plasma [ng/mL], Rat [7]
Settings | Female | Male
0.5 h | – | 7300
0.75 h | – | 6210
1 h | 4810 | –
2 h | – | 2060
2 min | – | 9350
4 h | – | 690
6 h | – | 454
7 min | 8000 | 9000
8 h | – | 205
10 min | – | 8770
20 min | – | 6950
